The test has as its system 677734-321-R-J1-PDC complex spheroid viability. Put plainly: Anticancer human tumor 677734-321-R-J1-PDC patient-derived soft tissue sarcoma cell line growth inhibition [POLQ]. The conditions noted are these: for viability, T/C: stronger effect = lower value; for IC50: curve of compound. Here is the method:
Multicellular complex tumor spheroid response to Polymerase (POL) inhibitors (novobiocin, ART-558, RP6685) in combination with a variety of drugs and investigational agents in selected tumor cell lines
The POL inhibitors (novobiocin, ART-558, and RP6685) were evaluated both individually and in combination with standard of care and investigational anticancer small molecules within a complex spheroid model of solid tumors. . Complex spheroids include a stromal component modeled by human endothelial cells (HUVEC) and fibroblasts modeled by human mesenchymal stem cells (MSCs). The concentration ranges selected for each drug and investigational agent were based upon clinically achievable concentrations if the clinical Cmax of the agent was known.
Compounds. The drugs and investigational agents: novobiocin (NSC847541), ART-558 (NSC835418), RP-6685 (NSC848927), peposertib (NSC802822), ceralasertib (NSC780249), elimusertib (NSC800525), camonsertib (NSC841442), AZD-1390 (NSC803789), olaparib (NSC753686), talazoparib (NSC767125), rucaparib (NSC756644), sotorasib (NSC818433), MRTX-1133 (NSC836407), SN-38 (NSC673596), topotecan (NSC609699), epotoside (NSC141540), doxorubicin (NSC123127), gemcitabine (NSC613327), 5-fluorouracil (NSC19893), paclitaxel (NSC125973), vemurafenib (NSC761431), MSA-2 (NSC828583), SN-011 (NSC837082), adavosertib (NSC754352), prexasertib (NSC758257), carboplatin (NSC241240) and oxaliplatin (NSC266046), were obtained from the National Cancer Institute (NCI) Developmental Therapeutics Program Chemical Repository (21). The FDA-approved anticancer drug set is available from the Developmental Therapeutics Program at https://dtp.cancer.gov/organization/dscb/obtaining/. […] The stock solutions were prepared in dimethyl sulfoxide (DMSO, Sigma-Aldrich, St. Louis, MO, cat. D2650), except for the platinum compounds which were prepared in saline (Quality Biological, Gaithersburg, MD, cat. 114-055-101), at 800-fold the tested concentration and stored at -70 degrees C prior to their use. All drugs and investigational agents were tested over a range starting from a high concentration at or near the clinical Cmax and decreasing in half-log increments. If the clinical Cmax for an agent had not been determined, the highest concentration tested was 10 microM, except for SN-38, which was tested at a high concentration of 1 microM.
Cell Culture. All cells were maintained in an incubator at 37 degrees C and 5% CO2 with 95% humidity. The PDC lines were cultured according to standard operating procedures established by the NCI PDMR (https://pdmr.cancer.gov). Table 3 of the manuscript, lists the cell lines along with the number of the three cell types plated to form the mct-spheroids and media for tumor cell growth. After thawing, all PDC lines, except 997537-175-T-J1-PDC and 415267-285-R-J2-PDC, were cultured in Matrigel-coated flasks prepared with a working solution of 1X Ham's F-12 nutrient mix, without supplementation (Thermo Fisher Scientific, cat. 11765054), 100 U/mL penicillin-streptomycin (Thermo Fisher Scientific, cat. 15140122), and 2.5% Matrigel (Corning Inc., Corning, NY, cat. 354248) for the first three passages. The two PDC lines 997537-175-T-J1-PDC and 415267-285-R-J2-PDC were cultured on uncoated flasks. The 857933-349-R-J2-PDC line was cultured in 6C/Colon 1B media containing advanced DMEM/F-12 (Thermo Fisher Scientific, cat. 12634028), 10 mM HEPES (Thermo Fisher Scientific, cat. 15630080), 1X GlutaMAX supplement (Thermo Fisher Scientific, cat. 35050061), 0.1 mg/mL primocin (InvivoGen, San Diego, CA, cat. ant-pm-2), 10% defined fetal bovine serum, heat inactivated (HyClone Laboratories Inc., Logan, UT, cat. SH30070.03HI), 50% L-WRN conditioned media (ATCC, cat. CRL-3276), 1.25 mM N-Acetyl-L-cysteine (Sigma-Aldrich, cat. A9165), 10 mM nicotinamide (Sigma-Aldrich, cat. N0636), 1X B-27 supplement (Thermo Fisher Scientific, cat. 17504044), 1X N-2 supplement (Thermo Fisher Scientific, cat. […]

“And” between values parts separate entries of the source, which are not always exact repeats. Equal values may be shown once. Where only a bound is given, the exact number is not on record here.
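Note: spheroids exposed to compounds for one week.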

A word on the viability, T/C: it is the result in the treated group divided by that in the control group, in per cent. For orientation: IC50 means the point on the concentration scale where inhibition reaches its midpoint. On to `C=CC(=O)N1CCN(c2nc(=O)n(-c3c(C)ccnc3C(C)C)c3nc(-c4c(O)cccc4F)c(F)cc23)C(C)C1` (stereo not drawn), for which the IC50 is > 10000 nM. Also, the viability, T/C (compound 0.0316 µM) was 100% and 109% and 106%. Besides, the viability, T/C (compound 0.1 µM) was 95.8% and 94.2% and 95.4%. Where the note is “compound 0.316 µM”, the viability, T/C is 117% and 96.4% and 105%. In addition, the viability, T/C (compound 1 µM) was 101% and 104% and 95.6%. Moreover, the viability, T/C (compound 3.16 µM) is 96.5% and 93.2% and 101%. In addition, under “compound 10 µM”, the viability, T/C is 89% and 64% and 94.1%.

Regarding `C=CCn1c(=O)c2cnc(Nc3ccc(N4CCN(C)CC4)cc3)nc2n1-c1cccc(C(C)(C)O)n1`, the IC50 is > 1000 nM and 657 nM and 753 nM. Also, the viability, T/C (compound 0.00316 µM) was 109% and 100% and 106%. In addition, for the setting “compound 0.01 µM”, the viability, T/C was 115% and 89.1% and 99%. Besides, the viability, T/C (compound 0.0316 µM) is 105% and 97.8% and 107%. Under “compound 0.1 µM”, the viability, T/C is 103% and 90.1% and 87.8%. Also, the viability, T/C (compound 0.316 µM) was 103% and 74.6% and 85.4%. Also, the viability, T/C (compound 1 µM) was 64.8% and 36% and 39%.

`CC(=O)O[C@H]1C(=O)[C@@]2(C)[C@H]([C@H](OC(=O)c3ccccc3)[C@]3(O)C[C@H](OC(=O)[C@H](O)[C@@H](NC(=O)c4ccccc4)c4ccccc4)C(C)=C1C3(C)C)[C@]1(OC(C)=O)CO[C@@H]1C[C@@H]2O`: the half-maximal inhibitory concentration (IC50) was < 9.49 nM. Besides, for the setting “compound 0.00949 µM”, the viability, T/C is 22% and 35.2% and 37.8%. Besides, the viability, T/C (compound 0.03 µM) is 13.4% and 15.2% and 19.2%. The viability, T/C (compound 0.0949 µM) is 12.7% and 15.9% and 17.6%. For the same molecule, the viability, T/C (compound 0.3 µM) is 11.9% and 12.5% and 14.8%. In addition, the viability, T/C (compound 0.949 µM) is 14.2% and 12.4% and 14.5%. In addition, the viability, T/C (compound 3 µM) was 13.1% and 16.4% (2×).

`CC(C)n1c(=O)n(C)c2cnc3cc(F)c(-c4ccc(OCCCN5CCCCC5)nc4)cc3c21`: the viability, T/C was 104% and 96.1% and 15.7% (compound 0.0316 µM); 97.3% and 81.5% and 19.8% (compound 0.1 µM); 111% and 83.6% and 12.2% (compound 0.316 µM); 99.2% and 101% and 14.6% (compound 1 µM); 101% and 85.8% and 17.6% (compound 3.16 µM); 91% and 102% and 18.9% (compound 10 µM).

On to `CC1COCCN1c1cc(-c2ccnn2C)c2ccnc(-c3ccn[nH]3)c2n1` (stereo not drawn), for which the IC50 is 164 nM and 124 nM and 50.6 nM. The viability, T/C (compound 0.0316 µM) is 91.4% and 85.5% and 69.4%. The viability, T/C (compound 0.1 µM) is 60.5% and 56.2% and 22.1%. For the setting “compound 1 µM”, the viability, T/C is 24.4% and 21.4% and 10.8%. Besides, the viability, T/C (compound 3.16 µM) is 19.7% and 6.39% and 9.44%. The viability, T/C (compound 10 µM) is 18.5% and 17.1% and 9.19%.

As for `CC1COCCN1c1cc(C2(S(C)(=N)=O)CC2)nc(-c2ccnc3[nH]ccc23)n1` (stereo not drawn), the IC50 is 4390 nM and 1130 nM and 3830 nM. Also, the viability, T/C (compound 0.0316 µM) was 109% and 103% and 113%. For the same molecule, the viability, T/C (compound 0.1 µM) was 97.4% and 99.3% and 104%. In addition, for the setting “compound 0.316 µM”, the viability, T/C was 92% and 80.2% and 107%. Besides, the viability, T/C (compound 1 µM) was 86.7% and 51.1% and 86.6%. For the same molecule, for the setting “compound 3.16 µM”, the viability, T/C was 60.8% and 28.3% and 55.8%. The viability, T/C (compound 10 µM) is 21.6% and 9.59% and 22.4%.

As for `CCCS(=O)(=O)Nc1ccc(F)c(C(=O)c2c[nH]c3ncc(-c4ccc(Cl)cc4)cc23)c1F`, the IC50 is 4610 nM and 5800 nM and 6450 nM. Further, the viability, T/C (compound 0.0316 µM) was 109% and 98.3% and 104%. For the setting “compound 0.1 µM”, the viability, T/C was 98% (2×) and 103%. Moreover, the viability, T/C (compound 0.316 µM) is 90.9% and 101% and 108%. The viability, T/C (compound 1 µM) is 97.4% and 115% and 111%. In addition, the viability, T/C (compound 3.16 µM) was 71.8% and 98.3% and 112%. For the same molecule, under “compound 10 µM”, the viability, T/C was 4.28% and 6.33% and 14.5%.

For the molecule `CC[C@@]1(O)C(=O)OCc2c1cc1n(c2=O)Cc2cc3c(CN(C)C)c(O)ccc3nc2-1`, the IC50 is 29.2 nM and 19.4 nM and 24.8 nM. The viability, T/C (compound 0.000316 µM) is 104% (2×) and 105%. For the same molecule, the viability, T/C (compound 0.001 µM) is 111% and 90.9% and 101%. For the same molecule, the viability, T/C (compound 0.00316 µM) is 105% and 100% and 109%. Moreover, for the setting “compound 0.01 µM”, the viability, T/C is 98.2% and 82.6% and 99.5%. The viability, T/C (compound 0.0316 µM) is 46.4% and 25.9% and 36.8%. Moreover, the viability, T/C (compound 0.1 µM) is 18% and 13.8% and 15%.

Consider `CCc1c2c(nc3ccc(O)cc13)-c1cc3c(c(=O)n1C2)COC(=O)[C@]3(O)CC`, for which the IC50 is < 3.16 nM. Also, the viability, T/C (compound 0.00316 µM) was 29.6% and 21.7% and 23.7%. Moreover, under “compound 0.01 µM”, the viability, T/C was 13.3% and 10.5% and 14.2%. Also, the viability, T/C (compound 0.0316 µM) is 5.51% and 5.68% and 5.45%. Moreover, the viability, T/C (compound 0.1 µM) was 3.41% and 4.83% and 3.66%. In addition, for the setting “compound 0.316 µM”, the viability, T/C is 1.89% and 3.99%. Moreover, for the setting “compound 1 µM”, the viability, T/C is 1.68% and 1.7% and 1.87%.

On to `CNCc1ccc(-c2[nH]c3cc(F)cc4c3c2CCNC4=O)cc1`, for which the IC50 was > 10000 nM. Besides, the viability, T/C (compound 0.0316 µM) is 105% and 107% and 106%. Further, the viability, T/C (compound 0.1 µM) was 101% and 75.4% and 97.1%. Moreover, the viability, T/C (compound 0.316 µM) is 102% and 106% and 99.2%. The viability, T/C (compound 1 µM) was 101% and 99.7% and 105%. For the same molecule, the viability, T/C (compound 3.16 µM) was 108% and 101% and 99%. Besides, the viability, T/C (compound 10 µM) is 106% and 82.2% and 88.9%.

Source of the values: PubChem BioAssay AID1963842 (Molecular Pharmacology Branch, DTP, NCI, 2024).
